# Experimental data from patent US9364469B1, “Identification of a new AMPK activator for treatment of lung cancer” (Macau University of Science and Technology, priority 2015, dated 2016).
# Key:
# ACC = experiment: Western blot analysis of ACC phosphorylation; type: cell-based; conditions: H1975 cells, 24 hours
# Protocol: (§1) After incubating H1975 cells with D561-0775 for 24 hours, H1975 cells were harvested and washed with cold 1×PBS. Then, cells were lysed with ice-cold RIPA lysis buffer with protease and phosphatase inhibitors added to extract the cell protein extraction. The supernatants were collected by centrifugation at 12,000 g, for 5 minutes. The quantitation of total protein extraction was measured by Bio-Rad DCTM protein assay kit (Bio-Rad, Philadelphia, Pa., USA). Then 30 μg of protein was loaded and electrophoretically separated on 8% SDS-PAGE gel and then transferred to Nitrocellulose (NC) membrane. Membranes were blocked with 5% non-fat milk and […] containing 0.1% Tween-20 (TBST) for 1 hour at room temperature. After 1 hour, membranes were incubated with primary anti-bodies (1:1000 dilution) against GAPDH, total/phosphor-ACC, total-AMPK, and (1:500 dilution) against phosphor-AMPK, at 4° C. with gently shaking overnight. Membranes were washed with TBST for 3 times (5 minutes/time), and incubated with secondary fluorescent antibody (1:10000 dilutions) for 1 hour at room temperature. After rewashing the membranes with TBST for 3 times (15 minutes/time), the stripes were visualized by LI-COR Odessy scanner (Belfast, Me., USA).
# H1975 cells [1] = experiment: Apoptosis assay (Annexin V/PI flow cytometry, morphology observation); type: cell-based; conditions: 48 h
# Protocol: H1975 cells (1×10^5 cells/well) were seeded in a 6-well plate for 24 hours, and treated with the indicated concentrations of D561-0775 for an additional 48 hours at 37° C. After 48 hours, the cells were washed by ice-cold 1×PBS once and harvested by trypsination. Then cells were centrifuged, collected and re-suspended in ice-cold 1×PBS. After removing the supernatants, cell pellets were re-suspended in 100 μL 1× Annexin-binding buffer. The cells were then double-stained with Annexin-V FITC and PI (100 μg/mL) of 2 μL respectively for 15 min at room temperature in dark. After that, 300 μL 1× Annexin-binding buffer was added. Apoptotic cells were quantitatively counted by a BD Aria III Flow Cytometer (BD Biosciences, San Jose, Calif., USA)
# AMPK = experiment: Western blot analysis of AMPK phosphorylation; type: cell-based; conditions: H1975 cells, 24 hours
# Protocol: as §1
# AMPK kinase = experiment: AMPK enzyme activity assay (CycLex AMPK Kinase Assay Kit); type: biochemical; conditions: indicated concentrations, n=3, ** p<0.005, ***p<0.001
# From the text: The CycLex AMPK Kinase Assay Kit (CycLex Co., Ltd., Nagano, Japan) was used to detect the activation of AMPK by D561-0775. AMP was used as positive control, compound c was used as AMPK inhibitor, and AMPK kinase was used for representing the basal level.
# H1975 cells [2] = experiment: MTT cytotoxicity assay; type: cell-based; conditions: 72 h treatment, read-out: IC50 (cell proliferation, MTT)
# Protocol: H1975 was purchased from ATCC (American type culture collection) and was cultivated with RPMI 1640 medium supplement with 10% fetal bovine serum (Gibco, Big Cabin, Oklahoma, Me., USA), 100 U/mL, penicillin and 100 μg/mL and streptomycin (Gibco, Big Cabin, Oklahoma, Me., USA). The cells were cultured in incubator with 5% CO2 at 37° C.
# Cells were seeded in a 96-well microplate with 5000 cells/well confluence, and put into the incubator overnight for cell adhesion. Different concentrations of the drug D561-0775 were added with Dimethyl sulfoxide (DMSO) as vehicle control. The microplates were incubated for another 72 hours. The whole experiment was repeated in triplicate. 10 μL of MTT (5 mg/mL) solution was added to each well. The plate was placed back into the incubator for 4 hours. After that, 100 μL of resolved solution (10% SDS and 0.1 mM HCL) was added to each well. Before dissolving the formazan crystals, the microplate was put back into the incubator for another 4 hours. The absorbance of the plate was measured at 570 nm with reference at 650 nm by a microplate reader (Tecan, Morrisville, N.C., USA). Cell viability was calculated by percentages of the absorbance of the treatment group divided by the absorbance of untreated group. At least three independent experiments were performed for data analysis and presentation.
# [3] = 20 μM treatment group, **p<0.01, n=3
compound,measurement,setting,value
N#Cc1nc(-c2ccc(COc3ccc(Br)cc3)o2)oc1NCc1cccnc1 [D561-0775],phosphorylation of ACC,ACC,activated phosphorylation of both AMPK and ACC in a dose-dependent manner
same,percentage of apoptotic cells vs control group,H1975 cells [1]; [3],significant higher percentage of apoptotic cells
same,percentage of viable cells vs control group,H1975 cells [1]; [3],lower percentage of viable cells
same,apoptosis induction (flow cytometry),H1975 cells [1]; Annexin V/PI,induced significant level of apoptosis in a dose-dependent manner
same,cell morphology,H1975 cells [1]; morphology observation,floated and rounded-up starting at 20 μM
same,phosphorylation of AMPK,AMPK,activated phosphorylation of both AMPK and ACC in a dose-dependent manner
same,AMPK kinase activity (fold of AMPK kinase alone group),AMPK kinase,enhanced in a dose-dependent manner
same,IC50,H1975 cells [2],9.59 ± 1.73 µM
